Legend:
[1] = tested on: CD44 on MKN-28-CD44-ox cells; test: Confocal immunofluorescence of peptide binding to CD44-overexpressing MKN-28 cells; type: cell-based, human; settings: 100 μM Alexa Fluor 594 labeled peptide, 20 min, fixed cells, confocal microscopy
Description: (§1) Plasmids containing cDNA of CD44 protein were synthesized by GENECHEM, Shanghai, China. Using Pfu polymerase and two oligonucleotides ([…] and […]), the CD44 cDNA was cloned into Xhol and ECOR1 sites of GV146 (GENECHEM, Shanghai, China) by recombinant PCR. Then, CD44-negative MNK-28 cells were transfected with the plasmid with Lipofectamine 2000 reagent (Invitrogen, California, USA), and then the efficiency of CD44 expression in MKN-28 cells was tested. Finally, two cell lines were generated as following: MKN-28-con with no CD44 expression and MKN-28-CD44-ox with CD44 overexpression labeled with enhanced green fluorescent protein (EGFP).
(§2) For the preparation of confocal laser microscopy, the transfected MNK-28 cancer cells were washed with phosphate buffer saline (PBS) three times, then fixed with 4% paraformaldehyde at ambient temperature for 30 min, and blocked with 5% BSA (w/v) in PBS at 37°C for 1 h. The blocked cells were sequentially incubated with 100 μM RP-1 or WYP labeled with Alexa Fluor 594 for 20 min, and counterstained with 4,6-diamidino-2-phenylindole (DAPI). […] For the evaluation of the correlation of fluorescent intensities between CD44-EGFP and RP-1-Fluor 594, a semi-quantitative analysis was performed with ImageJ 1.48v software (National Institutes of Health, Maryland, USA) by randomly selecting and observing 10 fields of vision. […]

[2] = tested on: SGC-7901 subcutaneous xenograft; test: In vivo fluorescence imaging and biodistribution in SGC-7901 xenograft mice
Description: All animal procedures were approved by the Ethics Committee of Xi’an Jiaotong University and conducted in accordance with the Helsinki Declaration (1975). Athymic nude mice (male, 4–5 weeks old, with a body weight of 20–25 g) were obtained from the Animal Experiment Center of Xi’an Jiaotong University, Xi’an, China. The SGC-7901 tumor xenografts were generated by subcutaneous injection of 5–8 × 10^6 SGC-7901 cells suspended in 200 μL culture medium into the left axilla of mice. The cells were allowed to grow for 2 weeks until tumor volume reached an estimate of 1 cm^3.
In vivo fluorescence imaging was performed with the IVIS Spectrum Imaging System and analyzed with the IVIS Living Imaging 4.2 software (Xenogen, California, USA). Identical imaging settings (exposure time: 40s; binning: 16; lens aperture [f/stop]: 4; field of view: 13.3) were used for capturing images. Fluorescent intensity was normalized and presented as (p/sec/cm^2/sr)/(μW/cm^2). The mice from the experimental group (n = 10) and control group (n = 10) were intravenously injected with 1 mg/kg FITC-RP-1 and FITC-WYP, respectively. Mice anesthetized with isoflurane were subjected to optical imaging at each hour since 1h after injection. Finally, solid tumors, tissues, and organs were all harvested and rinsed with PBS for further analysis of the distribution of FITC-RP-1.

[3] = tested on: MKN-28 cells not expressing CD44 transgenes; test: Confocal immunofluorescence of peptide binding to non-CD44 MKN-28 cells; type: cell-based, human; settings: 100 μM Alexa Fluor 594 labeled peptide, 20 min, co-culture with CD44-overexpressing cells, confocal microscopy
Description: as §1, §2

CD44 protein = settings: peptide screened from 12-mer phage peptide library; ref [25]; cited from earlier work
From the text: The purpose of the current study was to validate the specificity and affinity of RP-1 in both in vitro and in vivo experiment ...

SGC-7901 tumor tissue = test: Fluorescence microscopy of frozen xenograft sections after injection; type: in vivo, athymic nude mice; settings: 3 h after i.v. injection of peptide
Description: Once fluorescence signal reached its peak at the site of tumor, subcutaneous tumor tissues were harvested for further experiment. After shock-frozen with liquid nitrogen, tumor tissues were cut into 5 μm sections and fixed in 4% paraformaldehyde at ambient temperature for 30 min. The coverslips were mounted with glycerol–gelatin containing anti-fading buffer (Bioworld, Minnesota, USA). Finally, the fluorescence images of frozen sections were captured with a fluorescent microscope (Nikon-Eclipse, Tokyo, Japan)

[4] = excised tissue, 3 h after i.v. FITC-RP-1, 1 μg/g

In the case of “WHPWSYLWTQQA [RP-1, CD44-specific peptide … screened from a 12-mer phage peptide library]”, the “binding of peptide to CD44 on the cell membrane” value [1] is reported as “apparent binding of RP-1 peptides to CD44 on the cell membrane”, the “organs with accumulation (fluorescence of excised tissues)” value ([2]; 3 h after i.v. injection of FITC-labeled peptide, 1 μg/g) is reported as “accumulation of RP-1 in tumor tissue and liver” and the “fluorescence signal remaining (elimination)” value ([2]; 6 h after intravenous injection) is reported as “almost undetectable”. For the same sequence, the “fluorescent intensity, kidney” value [2, 4] was 2.00 × 10^8 (p/sec/cm^2/sr) /(μW/cm^2), the “fluorescent intensity, liver” value [2, 4] was 5.58 × 10^8 (p/sec/cm^2/sr) /(μW/cm^2) and the “fluorescent intensity, stomach” value [2, 4] was 2.28 × 10^8 (p/sec/cm^2/sr) /(μW/cm^2). For the same sequence, the “fluorescent intensity, tumor” value ([2]; excised tissue, 3 h after i.v. FITC-RP-1, 1 μg/g, tumor vs other organs P < 0.001) was 1.14 × 10^9 (p/sec/cm^2/sr) /(μW/cm^2), the “binding of peptide to cells without CD44” value [3] was “bound considerably lower amounts of RP-1 peptide” and the “binding to CD44 protein” value (CD44 protein) was “can specifically bind to CD44 protein”. The “fluorescence on tumor cells in frozen sections” value (SGC-7901 tumor tissue) was “fluorescence signals were observed both on cell membrane and in cytoplasm”.
